Results published in patent US20230146675A1, “PYRIMIDO[5,4-d]PYRIMIDINE DERIVATIVES AS ENT INHIBITORS FOR THE TREATMENT OF CANCERS, AND COMBINATION THEREOF WITH ADENOSINE RECEPTOR ANTAGONISTS” (ITEOS BELGIUM SA, priority 2020, published 2023).

molecular target: T1, human ENT1 (Homo sapiens, UniProt Q99808); assay: ENT1 binding assay (competition with Sahenta-DY647 on JAR cells); parameters: JAR cells expressing ENT1 were bought from ATCC; host or cells: JAR cells; details: binned IC50
T1 sequence (Q99808 1-456): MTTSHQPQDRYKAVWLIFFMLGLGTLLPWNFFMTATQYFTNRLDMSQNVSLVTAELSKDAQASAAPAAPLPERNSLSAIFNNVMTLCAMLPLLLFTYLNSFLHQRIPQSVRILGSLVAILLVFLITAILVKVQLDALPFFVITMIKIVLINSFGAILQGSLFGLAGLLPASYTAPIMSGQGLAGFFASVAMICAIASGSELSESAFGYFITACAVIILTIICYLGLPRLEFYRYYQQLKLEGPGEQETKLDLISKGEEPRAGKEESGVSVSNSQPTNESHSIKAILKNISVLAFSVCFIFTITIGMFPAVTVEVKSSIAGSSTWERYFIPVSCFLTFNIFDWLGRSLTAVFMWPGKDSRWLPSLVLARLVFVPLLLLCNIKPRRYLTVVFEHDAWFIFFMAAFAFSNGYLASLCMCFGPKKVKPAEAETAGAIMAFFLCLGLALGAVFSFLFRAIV
Method: Purpose. […] By measuring the fluorescence at the end of the assay we could assess the binding potency of the compounds of the present invention.
JAR cells were resuspended in the described buffer. Compounds of the present invention and Sahenta-DY647 were diluted 200× in the described buffer.
The total volume of the reaction was 100 μL (50 μL of cells, 25 μL of the compounds of the present invention and 25 μL of Sahenta-DY647) in a 96 well plate, U-bottom (Greiner®, #650-180). The plates were washed 2× by centrifugation (4 min, 400 rcf at 4° C.) in the same buffer.

Compound | IC50 [nM]
COCCN(CCOC)c1nc(N2CCC(OC)CC2)c2nc(N(CCOC)CCOC)nc(NCc3ccc(OC)cc3)c2n1 [Compound 47, N4-(4-methoxybenzyl)-N2,N2,N6,N6-tetrakis(2-methoxyethyl)-8-(4-methoxypiperidin-1-yl)pyrimido[5,4-d]pyrimidine-2,4,6-triamine] | 100 to 500
COCCN(CCOC)c1nc(N2CCC(OC)CC2)c2nc(N(CCOC)CCOC)nc(NCc3cccc(OC)c3)c2n1 [Compound 48, N4-(3-methoxybenzyl)-N2,N2,N6,N6-tetrakis(2-methoxyethyl)-8-(4-methoxypiperidin-1-yl)pyrimido[5,4-d]pyrimidine-2,4,6-triamine] | < 100
COCCN(CCOC)c1nc(N2CCC(OC)CC2)c2nc(N(CCOC)CCOC)nc(NCc3ccccc3)c2n1 [Compound 49, N4-benzyl-N2,N2,N6,N6-tetrakis(2-methoxyethyl)-8-(4-methoxypiperidin-1-yl)pyrimido[5,4-d]pyrimidine-2,4,6-triamine] | < 100
COCCN(CCOC)c1nc(N2CCC(OC)CC2)c2nc(N(CCOC)CCOC)nc(NCc3ccc(C(F)(F)F)nc3)c2n1 [Compound 53, N2,N2,N6,N6-tetrakis(2-methoxyethyl)-8-(4-methoxypiperidin-1-yl)-N4-((6-(trifluoromethyl)pyridin-3-yl)methyl)pyrimido[5,4-d]pyrimidine-2,4,6-triamine] | 500 to 1000
COCCN(CCOC)c1nc(N2CCC(OC)CC2)c2nc(N(CCOC)CCOC)nc(NCCOc3ccccc3)c2n1 [Compound 56, N2,N2,N6,N6-tetrakis(2-methoxyethyl)-8-(4-methoxypiperidin-1-yl)-N4-(2-phenoxyethyl)pyrimido[5,4-d]pyrimidine-2,4,6-triamine] | 100 to 500
COCCN(CCOC)c1nc(N2CCC(OC)CC2)c2nc(N(CCOC)CCOC)nc(NCc3nccs3)c2n1 [Compound 58, N2,N2,N6,N6-tetrakis(2-methoxyethyl)-8-(4-methoxypiperidin-1-yl)-N4-(thiazol-2-ylmethyl)pyrimido[5,4-d]pyrimidine-2,4,6-triamine] | 500 to 1000
COCCN(CCOC)c1nc(N2CCC(OC)CC2)c2nc(N(CCOC)CCOC)nc(NCc3cncs3)c2n1 [Compound 59, N2,N2,N6,N6-tetrakis(2-methoxyethyl)-8-(4-methoxypiperidin-1-yl)-N4-(thiazol-5-ylmethyl)pyrimido[5,4-d]pyrimidine-2,4,6-triamine] | 100 to 500
COCCN(CCOC)c1nc(N2CCC(OC)CC2)c2nc(N(CCOC)CCOC)nc(NCc3cnco3)c2n1 [Compound 60, N2,N2,N6,N6-tetrakis(2-methoxyethyl)-8-(4-methoxypiperidin-1-yl)-N4-(oxazol-5-ylmethyl)pyrimido[5,4-d]pyrimidine-2,4,6-triamine] | 500 to 1000
COCCN(CCOC)c1nc(N2CCC(OC)CC2)c2nc(N(CCOC)CCOC)nc(NCc3ccncc3)c2n1 [Compound 61, N2,N2,N6,N6-tetrakis(2-methoxyethyl)-8-(4-methoxypiperidin-1-yl)-N4-(pyridin-4-ylmethyl)pyrimido[5,4-d]pyrimidine-2,4,6-triamine] | 500 to 1000
COCCN(CCOC)c1nc(N2CCC(OC)CC2)c2nc(N(CCOC)CCOC)nc(NCc3cccnc3)c2n1 [Compound 62, N2,N2,N6,N6-tetrakis(2-methoxyethyl)-8-(4-methoxypiperidin-1-yl)-N4-(pyridin-3-ylmethyl)pyrimido[5,4-d]pyrimidine-2,4,6-triamine] | 500 to 1000
COCCN(CCOC)c1nc(N2CCC(OC)CC2)c2nc(N(CCOC)CCOC)nc(NCCc3cccnc3)c2n1 [Compound 63, N2,N2,N6,N6-tetrakis(2-methoxyethyl)-8-(4-methoxypiperidin-1-yl)-N4-(2-(pyridin-3-yl)ethyl)pyrimido[5,4-d]pyrimidine-2,4,6-triamine] | 100 to 500
COCCN(CCOC)c1nc(N2CCC(OC)CC2)c2nc(N(CCOC)CCOC)nc(NCCc3ccncc3)c2n1 [Compound 64, N2,N2,N6,N6-tetrakis(2-methoxyethyl)-8-(4-methoxypiperidin-1-yl)-N4-(2-(pyridin-4-yl)ethyl)pyrimido[5,4-d]pyrimidine-2,4,6-triamine] | 100 to 500
COCCN(CCOC)c1nc(N2CCC(OC)CC2)c2nc(N(CCOC)CCOC)nc(N(C)C)c2n1 [Compound 67, N2,N2,N6,N6-tetrakis(2-methoxyethyl)-8-(4-methoxypiperidin-1-yl)-N4,N4-dimethylpyrimido[5,4-d]pyrimidine-2,4,6-triamine] | 500 to 1000
COCCN(CCOC)c1nc(N2CCC(OC)CC2)c2nc(N(CCOC)CCOC)nc(N3CCOCC3)c2n1 [Compound 69, N2,N2,N6,N6-tetrakis(2-methoxyethyl)-4-(4-methoxypiperidin-1-yl)-8-morpholinopyrimido[5,4-d]pyrimidine-2,6-diamine] | 500 to 1000
COCCN(CCOC)c1nc(N2CCNC(=O)C2)c2nc(N(CCOC)CCOC)nc(N3CCC(OC)CC3)c2n1 [Compound 70, 4-(2,6-bis(bis(2-methoxyethyl)amino)-8-(4-methoxypiperidin-1-yl)pyrimido[5,4-d]pyrimidin-4-yl)piperazin-2-one] | 500 to 1000
COCCN(CCOC)c1nc(N2CCC(OC)CC2)c2nc(N(CCOC)CCOC)nc(N(C)Cc3ccccn3)c2n1 [Compound 73, N2,N2,N6,N6-tetrakis(2-methoxyethyl)-8-(4-methoxypiperidin-1-yl)-N4-methyl-N4-(pyridin-2-ylmethyl)pyrimido[5,4-d]pyrimidine-2,4,6-triamine] | 100 to 500
COCCN(CCOC)c1nc(N2CCN(C(C)=O)CC2)c2nc(N(CCOC)CCOC)nc(N3CCC(OC)CC3)c2n1 [Compound 74, 1-(4-(2,6-bis(bis(2-methoxyethyl)amino)-8-(4-methoxypiperidin-1-yl)pyrimido[5,4-d]pyrimidin-4-yl)piperazin-1-yl)ethanone] | 100 to 500

Other lines, results leading:

IC50 [nM] | Compound
100 to 500 | COCCN(CCOC)c1nc(N2CCC(OC)CC2)c2nc(N(CCOC)CCOC)nc(NCC3CCOCC3)c2n1 [Compound 46, N2,N2,N6,N6-tetrakis(2-methoxyethyl)-8-(4-methoxypiperidin-1-yl)-N4-((tetrahydro-2H-pyran-4-yl)methyl)pyrimido[5,4-d]pyrimidine-2,4,6-triamine]
100 to 500 | COCCN(CCOC)c1nc(N2CCC(OC)CC2)c2nc(N(CCOC)CCOC)nc(NCC(C)(C)C)c2n1 [Compound 50, N2,N2,N6,N6-tetrakis(2-methoxyethyl)-8-(4-methoxypiperidin-1-yl)-N4-neopentylpyrimido[5,4-d]pyrimidine-2,4,6-triamine]
500 to 1000 | COCCCNc1nc(N(CCOC)CCOC)nc2c(N3CCC(OC)CC3)nc(N(CCOC)CCOC)nc12 [Compound 51, N2,N2,N6,N6-tetrakis(2-methoxyethyl)-8-(4-methoxypiperidin-1-yl)-N4-(3-methoxypropyl)pyrimido[5,4-d]pyrimidine-2,4,6-triamine]
500 to 1000 | CCOCCCNc1nc(N(CCOC)CCOC)nc2c(N3CCC(OC)CC3)nc(N(CCOC)CCOC)nc12 [Compound 52, N4-(3-ethoxypropyl)-N2,N2,N6,N6-tetrakis(2-methoxyethyl)-8-(4-methoxypiperidin-1-yl)pyrimido[5,4-d]pyrimidine-2,4,6-triamine]
< 100 | CCCCNc1nc(N(CCOC)CCOC)nc2c(N3CCC(OC)CC3)nc(N(CCOC)CCOC)nc12 [Compound 54, N4-butyl-N2,N2,N6,N6-tetrakis(2-methoxyethyl)-8-(4-methoxypiperidin-1-yl)pyrimido[5,4-d]pyrimidine-2,4,6-triamine]
100 to 500 | COCCN(CCOC)c1nc(N2CCC(OC)CC2)c2nc(N(CCOC)CCOC)nc(NCC3CCCC3)c2n1 [Compound 55, N4-(cyclopentylmethyl)-N2,N2,N6,N6-tetrakis(2-methoxyethyl)-8-(4-methoxypiperidin-1-yl)pyrimido[5,4-d]pyrimidine-2,4,6-triamine]
500 to 1000 | COCCN(CCOC)c1nc(N2CCC(OC)CC2)c2nc(N(CCOC)CCOC)nc(NCC3CCOC3)c2n1 (stereo not drawn) [Compound 57, N2,N2,N6,N6-tetrakis(2-methoxyethyl)-8-(4-methoxypiperidin-1-yl)-N4-((tetrahydrofuran-3-yl)methyl)pyrimido[5,4-d]pyrimidine-2,4,6-triamine]
500 to 1000 | COCCN(CCOC)c1nc(N2CCC(OC)CC2)c2nc(N(CCOC)CCOC)nc(NCc3cnn(C)c3)c2n1 [Compound 65, N2,N2,N6,N6-tetrakis(2-methoxyethyl)-8-(4-methoxypiperidin-1-yl)-N4-((1-methyl-1H-pyrazol-4-yl)methyl)pyrimido[5,4-d]pyrimidine-2,4,6-triamine]
500 to 1000 | COCCN(CCOC)c1nc(N2CCC(OC)CC2)c2nc(N(CCOC)CCOC)nc(NCc3cscn3)c2n1 [Compound 66, N2,N2,N6,N6-tetrakis(2-methoxyethyl)-8-(4-methoxypiperidin-1-yl)-N4-(thiazol-4-ylmethyl)pyrimido[5,4-d]pyrimidine-2,4,6-triamine]
100 to 500 | COCCN(CCOC)c1nc(N2CCC(OC)CC2)c2nc(N(CCOC)CCOC)nc(N3CCC(O)CC3)c2n1 [Compound 71, 1-(2,6-bis(bis(2-methoxyethyl)amino)-8-(4-methoxypiperidin-1-yl)pyrimido[5,4-d]pyrimidin-4-yl)piperidin-4-ol]
